Test results taken from US12612424B2, “HPK1 inhibitors and uses thereof” (Regor Pharmaceuticals, Inc., priority 2019, dated 2026).

Experiments:
HPK1 = HPK1 (Homo sapiens, UniProt Q92918); experiment: HPK1 biochemical assay (ADP-GLO Kinase Assay); conditions: B*: testing performed in a first testing facility; read-out: HPK1 IC50 (nM) Relative, B*
How it was run: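 HPK1 (0.6 ng/μL final) activity was followed with MBP substrate and 10 μM ATP in Tris pH 7.5/MgCl2/BSA/DTT buffer, measured by ADP-Glo luminescence. Compounds were tested as 3-fold dilutions from 10 μM. IC50 came from a three-parameter logistic fit, with inhibition normalised to high/low controls.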

[1] = system: Human Pan T Cell (IL-2 release); experiment: IL2 released by human pan T cell upon anti-CD3/anti-CD28 stimulation (ELISA); format: cell-based; conditions: human pan T cells; for maximal fold induction: 48 h, response of IL-2 over DMSO control, anti-CD3/anti-CD28, 48 hours, ELISA, read-out: IL-2 Max Fold Response
From the text: For example, Example 5 describes such a functional assay for determining the effect of an HPK1 inhibitor on IL-2 & IFN-γ release upon stimulation of Pan T cells. The secreted IL-2 & IFN-γ can be measured/quantified by standard ELISA assay. Briefly, pan T cells can be isolated from peripheral blood (PB) mononuclear cells (MNCs), or PBMC, using commercially available kits, such as MACS (Miltenyl Biotec) Pan T isolation kit (Cat. No. 130-096-535). Primary human pan-T cells include CD4 and CD8 T cells as well as some gamma/delta T cell subsets. The pan-T cells can be isolated using the negative immunomagnetic separation technique without the use of columns.
Isolated pan-T cells can be dispensed into 96-well plates at 100,000 cells/well, and stimulated with immobilized anti-CD3 antibody and soluable anti-CD28 antibody, or PMA/Ionomycin as the positive control (or culture media as the negative control). Different concentrations of test compounds can be added to the cells to assess the compound effect on cytokine secretion following TCR-stimulation/CD28 co-stimulation. Stimulated cells are incubated for 2 more days, before the supernatant (containing secreted cytokines by pan-T cells) is collected from each well for ELISA assay and quantitation of IL-2 and IFN-γ.
Biology Example 8 Compound Efficacy Study on IL2 & IFN-γ Released by Human Pan T Cell
This example is an assay method that can be used to determine compound effects on IL2 & IFN-γ release using pan T cells and ELISA assay format.
3. Procedures Procedures for Pan T isolation and Reagent preparation (Day 0): 1. Cell Growth Medium: • RPMI1640: ATCC, Cat #30-2001 • 10% FBS: Gibco, Cat #10099141 • 1% Pen-Strep: Gibco, Cat #15140122 • 1% Non-essential amino: Gibco, Cat #11140050 • Beta-Mercaptoethanol: Gibco, Cat #21985023 2. Pan T Isolation Buffer Preparation:
Prepare a solution containing phosphate-buffered saline (PBS), pH 7.2, 0.5% bovine serum albumin (BSA), and 2 mM EDTA by diluting MACS® BSA Stock Solution (#130-091-376) 20 times with autoMACS® Rinsing Solution. Keep buffer at 4° C. Degas buffer before use, as air bubbles could block the column.
3. Thawing of Frozen PBMC • 1) Pre-heat medium at 37° C. water bath. • 2) Rapidly thaw cells in 37° C. water bath. • 3) Add the pre-warmed medium into 15 mL tube. Transfer cells to the tube. • 4) 300×g centrifuge for 8 min. (centrifuge increase 0, decrease 0). • 5) Wash the PBMC using Rinsing buffer. • 6) Centrifuge PBMC at 300×g for 8 min, wash it twice (centrifuge increase 9, decrease 1). • 7) Resuspend the cells with Pan T cells isolation buffer and count cells number. 4. Pan T Cells Isolation: Cell Staining with Microbead Cocktail • 1) Prepare cells and determine cell number. Filter cells by 70 μm cell strainer. • 2) Resuspend cell pellet in 40 μL of buffer per 10^7 total cells. • 3) Add 10 μL of Pan T Cell Biotin-Antibody Cocktail per 10^7 total cells. • 4) Mix well and incubate for 10 minutes in the refrigerator (ice). • 5) Add 30 μL of buffer per 10^7 total cells. • 6) Add 20 μL of Pan T Cell MicroBead Cocktail per 10^7 total cells. • 7) Mix well and incubate for 15 minutes in the refrigerator (ice). • 8) Proceed to subsequent magnetic cell separation. • Note: a. Work fast, keep cells cold, and use pre-cooled solutions (2-8° C.). b. Volumes for magnetic labeling given are for up to 10′ total cells. When working with fewer cells, use the same volumes as indicated. c. When working with higher cell numbers, scale up all reagent volumes and total volumes accordingly. d. For optimal performance it is important to obtain a single-cell suspension before magnetic labeling. Subsequent Manual Cell Separation: • 1) Place LS Column in the magnetic field of a suitable MACS Separator. For details refer to the respective MACS Column data sheet. • 2) Prepare column by rinsing with 3 mL of buffer. • 3) Apply cell suspension onto the column. Collect flow-through, which represents the enriched T cells. • 4) Wash column with 5 mL of buffer. […]

JAK3 = target: T1, JAK3 (Homo sapiens, UniProt P52333); experiment: JAK3 biochemical assay (ADP-GLO Kinase Assay); conditions: for IC50: B*: testing performed in a first testing facility, read-out: JAK3 IC50 (nM) Relative, B*; for JAKs/HPK1 IC50 Ratio, B*: ratio of JAK3 IC50 to HPK1 IC50, first testing facility
T1 construct: purchased Thermo fisher PV3855
How it was run: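 Luminescent ADP-Glo readout after a 60 min, 25 °C reaction of JAK3 (0.78 ng) on Poly(E4Y1) (0.2 μg/μL) at 4 μM ATP, Tris pH 7.5 buffer with MgCl2, BSA and DTT. Compounds tested 10 μM down to 0.508 nM in 3-fold steps; % inhibition normalised to DMSO and reference-compound controls, IC50 from three-parameter fit.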

T1 sequence (P52333 781-1124 limits assumed): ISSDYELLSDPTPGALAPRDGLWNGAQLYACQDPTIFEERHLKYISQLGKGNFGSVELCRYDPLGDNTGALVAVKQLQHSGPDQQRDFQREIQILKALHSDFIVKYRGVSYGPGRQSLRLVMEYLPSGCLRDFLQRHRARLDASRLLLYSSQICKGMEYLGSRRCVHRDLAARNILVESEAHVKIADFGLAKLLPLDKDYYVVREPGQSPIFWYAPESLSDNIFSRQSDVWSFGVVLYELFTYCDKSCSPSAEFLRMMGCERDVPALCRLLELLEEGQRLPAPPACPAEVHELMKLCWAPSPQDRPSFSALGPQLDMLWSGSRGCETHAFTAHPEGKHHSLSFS
Sequence of HPK1 (Q92918 whole entry): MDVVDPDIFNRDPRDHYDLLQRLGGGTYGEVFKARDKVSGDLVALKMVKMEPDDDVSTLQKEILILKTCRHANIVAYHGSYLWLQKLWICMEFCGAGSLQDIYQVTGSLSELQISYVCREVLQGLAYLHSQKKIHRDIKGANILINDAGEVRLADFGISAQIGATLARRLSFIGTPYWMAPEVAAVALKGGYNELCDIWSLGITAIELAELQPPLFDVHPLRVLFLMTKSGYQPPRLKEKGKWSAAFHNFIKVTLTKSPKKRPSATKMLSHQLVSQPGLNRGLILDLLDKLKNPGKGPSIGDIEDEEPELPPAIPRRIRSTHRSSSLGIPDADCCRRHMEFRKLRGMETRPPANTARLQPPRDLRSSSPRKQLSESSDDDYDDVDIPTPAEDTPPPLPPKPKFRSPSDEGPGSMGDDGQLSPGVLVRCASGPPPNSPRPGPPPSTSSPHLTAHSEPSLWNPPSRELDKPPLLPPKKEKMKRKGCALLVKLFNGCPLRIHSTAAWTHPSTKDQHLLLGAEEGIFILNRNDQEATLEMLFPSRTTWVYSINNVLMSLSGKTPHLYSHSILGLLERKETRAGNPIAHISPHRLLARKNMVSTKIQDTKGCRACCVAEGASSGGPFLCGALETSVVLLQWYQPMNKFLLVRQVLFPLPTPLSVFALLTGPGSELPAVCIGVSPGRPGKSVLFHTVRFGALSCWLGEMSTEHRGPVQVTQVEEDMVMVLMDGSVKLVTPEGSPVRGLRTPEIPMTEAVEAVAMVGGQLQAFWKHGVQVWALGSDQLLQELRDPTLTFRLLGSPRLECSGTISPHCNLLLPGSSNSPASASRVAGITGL

| SMILES | IC50 (HPK1) | maximal fold induction ([1]; Homo sapiens, T-cell) | EC50 ([1]; Homo sapiens, T-cell, IL-2 response, calculated with GraphPad Prism) | EC2x (nM) ([1]; concentration of compound that gives 200% IL-2 response (2 folds) over DMSO control) | IC50 (JAK3) | JAKs/HPK1 IC50 Ratio, B* (JAK3) |
| --- | --- | --- | --- | --- | --- | --- |
| COc1cc2c(cc1Nc1ncc(Cl)c(-n3cc(F)c4ccccc43)n1)CN(C)CC2 [Example 11, N-(5-Chloro-4-(3-fluoro-1H-indol-1-yl)pyrimidin-2-yl)-6-methoxy-2-methyl-1,2,3,4-tetrahydroisoquinolin-7-amine] | ≤ 100 nM | < 2 |  |  |  |  |
| COc1cc2c(cc1Nc1ncc(Cl)c(N3CCc4ccccc43)n1)CN(CCO)CC2 [Example 27] | ≤ 100 nM | > 2 | > 1000 nM | + (“+”, for greater than 1 μM) |  |  |
| COc1ccc2c(c1)C(C(=O)O)CN2c1nc(Nc2cc3c(cc2OC)CCN(C)C3)ncc1Cl (centres unmarked) [Example 106, 1-(5-Chloro-2-((6-methoxy-2-methyl-1,2,3,4-tetrahydroisoquinolin-7-yl)amino)pyrimidin-4-yl)-5-methoxyindoline-3-carboxylic acid] | ≤ 100 nM |  |  |  | ≤ 100 nM | 11 |
| CC(C)Oc1cc2c(cc1Nc1ncc(Cl)c(N3CC(C(=O)O)c4ccccc43)n1)CN(C)CC2 (centres unmarked) [Example 111, 1-(5-Chloro-2-((6-isopropoxy-2-methyl-1,2,3,4-tetrahydroisoquinolin-7-yl)amino)pyrimidin-4-yl)indoline-3-carboxylic acid] | ≤ 100 nM |  |  |  | > 1000 nM | >236 |
| COC(=O)c1cn(-c2nc(Nc3cc4c(cc3OC)CCN(C)C4)ncc2Cl)c2ccccc12 [Example 114] | ≤ 100 nM |  |  |  | > 1000 nM | >118 |
| COc1cc2c(cc1Nc1ncc(Cl)c(N3CC(C)(C(=O)O)c4ccccc43)n1)CN(C)CC2 (centres unmarked) [Example 117] | ≤ 100 nM |  |  |  | ≤ 100 nM | 5 |
| COc1cc2c(cc1Nc1ncc(Cl)c(N3CC(CO)(C(=O)O)c4ccccc43)n1)CN(C)CC2 (centres unmarked) [Example 124] | ≤ 100 nM |  |  |  | ≤ 100 nM | 20 |
| COc1cc2c(cc1Nc1ncc(Cl)c(N3CC(C)(C(=O)O)c4ccccc43)n1)CNCC2 (centres unmarked) [Example 127, 1-(5-Chloro-2-((6-methoxy-1,2,3,4-tetrahydroisoquinolin-7-yl)amino)pyrimidin-4-yl)-3-methylindoline-3-carboxylic acid] | ≤ 100 nM |  |  |  | ≤ 100 nM | 4 |
| CCC(CC)COC(=O)Cc1cn(-c2nc(Nc3cc4c(cc3OC)CCN(C)C4)ncc2Cl)c2ccccc12 [Example 131, 2-Ethylbutyl 2-(1-(5-chloro-2-((6-methoxy-2-methyl-1,2,3,4-tetrahydroisoquinolin-7-yl)amino)pyrimidin-4-yl)-1H-indol-3-yl)acetate] | 100 to 500 nM |  |  |  | > 1000 nM | >82 |
| CCOC(=O)Cc1cn(-c2nc(Nc3cc4c(cc3OC)CCN(C)C4)ncc2Cl)c2ccccc12 [Example 132] | ≤ 100 nM |  |  |  | > 1000 nM | >426 |
| COc1cc2c(cc1Nc1ncc(Cl)c(-n3cc(C4(C(=O)O)CC4)c4ccccc43)n1)CN(C)CC2 [Example 143] | ≤ 100 nM |  |  |  | > 1000 nM | 433 |
| COc1cc2c(cc1Nc1ncc(Cl)c(-n3cc(C(C(=O)O)C(F)(F)F)c4ccccc43)n1)CN(C)CC2 (centres unmarked) [Example 144] | ≤ 100 nM |  |  |  | > 1000 nM | 250 |
| COc1nc2c(cc1Nc1ncc(Cl)c(N3CC(C)(CC(=O)O)c4ccccc43)n1)CN(C)CC2 (centres unmarked) [Example 155] | ≤ 100 nM |  |  |  | > 1000 nM | >111 |
| COc1cc2c(cc1Nc1ncc3cc(C(=O)O)n(-c4ccccc4)c3n1)CN(C)CC2 [Example 165, 2-((6-Methoxy-2-methyl-1,2,3,4-tetrahydroisoquinolin-7-yl)amino)-7-phenyl-7H-pyrrolo[2,3-d]pyrimidine-6-carboxylic acid] | ≤ 100 nM |  |  |  | > 1000 nM | 421 |
| COc1cc2c(cc1Nc1ncc3c(n1)n(-c1ccccc1)c(=O)n3C)CN(C)CC2 [Example 166, 2-((6-Methoxy-2-methyl-1,2,3,4-tetrahydroisoquinolin-7-yl)amino)-7-methyl-9-phenyl-7,9-dihydro-8H-purin-8-one] | 100 to 500 nM |  |  |  | > 1000 nM |  |
| COc1cc2c(cc1Nc1ncc(Cl)c(N3CC(C(=O)O)C4(CCOCC4)C3)n1)CN(C)CC2 (centres unmarked) [Example 168] | ≤ 100 nM |  |  |  | > 1000 nM | 737 |
| COc1cc2c(cc1Nc1ncc(Cl)c(N3CCC4(COC4)C3)n1)CN(C)CC2 [Example 170, N-(5-chloro-4-(2-oxa-6-azaspiro[3.4]octan-6-yl)pyrimidin-2-yl)-6-methoxy-2-methyl-1,2,3,4-tetrahydroisoquinolin-7-amine] | 100 to 500 nM |  |  |  | > 1000 nM | 77 |
| COc1cc2c(cc1Nc1ncc3ccc(=O)n(-c4ccccc4)c3n1)CN(C)CC2 [Example 171, 2-((6-Methoxy-2-methyl-1,2,3,4-tetrahydroisoquinolin-7-yl)amino)-8-phenylpyrido[2,3-d]pyrimidin-7(8H)-one] | ≤ 100 nM |  |  |  | > 1000 nM | 121 |
